In test [1] the test system is MCF-7 cells. Description: Breast Cancer Cell Viability Assay (MCF7 Viability Assay). The test is classed as cell-based. The following applies: for pIC50: Homo sapiens, MCF7, 120 h, read-out: MCF7 Viability Assay IC50; for MCF7 Viability Assay Max Response: MCF-7 cells, 5 days' compound exposure, CellTiter-Glo.
Test [2] deals with T1, ER-α (Homo sapiens, UniProt P03372).
T1 construct: endogenous in cells; host or cells: MCF-7
Description: Breast Cancer Cell ER-α in Cell Western Assay (SP1). The test is classed as cell-based. The following applies: MCF7, read-out: ER In-Cell Western Assay (SP1); Max Response. The procedure:
Breast Cancer Cell ER-α in Cell Western Assay (SP1)
MCF-7 cells were adjusted to a concentration of 200,000 cells per mL in RPMI containing 10% charcoal-stripped FBS and 20 mM HEPES. 16 microliters of the cell suspension (3200 cells) was added to each well of a poly-D-lysine 384 well plate, and the cells were incubated overnight to allow the cells to adhere. The following day an eleven point, serial semilog dilution of each compound was added to the cells in 16 μL at a final concentration ranging from 0.3-0.000003 μM. At 4 or 24 hr post compound addition, the cells were fixed (10% formalin in PBS) for 20 minutes. Cells were permeablized in PBS 0.1% Triton and blocked with LICOR blocking buffer (50 μl/well, 90′). The wells were then incubated overnight at 4° C. with SP1 rabbit monoclonal Ab (Thermo Scientific) diluted 1:1000 in LICOR blocking buffer/0.1% Tween-20. Wells which were treated with blocking buffer with Tween but no antibody were used as a background control. Wells were washed with 0.1% Tween-20/PBS and then incubated in goat anti-rabbit IRDye™ 800CW (LICOR Inc.; 1:1000) and DRAQ5 DNA dye (1:2000 for 2 mM stock) diluted in LICOR blocking buffer containing 0.1% Tween-20 and 0.01% SDS for 60 minutes. Cells were washed (50 μl/well, 5′ each) in 0.1% Tween-20/PBS. Plates were scanned on a LICOR Odyssey infrared imaging system. Integrated intensities in the 800 nm channel and 700 nm channel were measured to determine levels of ER and DNA respectively. Percent ER levels were determined as follows: (Integrated intensity 800 nm sample/integrated intensity 700 nm sample)/(Integrated intensity 800 nm untreated cells/integrated intensity 700 nm untreated cells)×100=% ER levels.

Experimental findings from US9187460B2, “Estrogen receptor modulators and uses thereof” (SERAGON PHARMACEUTICALS, INC., priority 2011, dated 2015) are described below.

What is called pIC50 is the IC50 on a negative log10 scale, so that one unit is a factor of ten.

pIC50: −log10 of the molar value. Where only a bound is given, the exact number is not on record here.

T1 sequence (P03372 whole entry): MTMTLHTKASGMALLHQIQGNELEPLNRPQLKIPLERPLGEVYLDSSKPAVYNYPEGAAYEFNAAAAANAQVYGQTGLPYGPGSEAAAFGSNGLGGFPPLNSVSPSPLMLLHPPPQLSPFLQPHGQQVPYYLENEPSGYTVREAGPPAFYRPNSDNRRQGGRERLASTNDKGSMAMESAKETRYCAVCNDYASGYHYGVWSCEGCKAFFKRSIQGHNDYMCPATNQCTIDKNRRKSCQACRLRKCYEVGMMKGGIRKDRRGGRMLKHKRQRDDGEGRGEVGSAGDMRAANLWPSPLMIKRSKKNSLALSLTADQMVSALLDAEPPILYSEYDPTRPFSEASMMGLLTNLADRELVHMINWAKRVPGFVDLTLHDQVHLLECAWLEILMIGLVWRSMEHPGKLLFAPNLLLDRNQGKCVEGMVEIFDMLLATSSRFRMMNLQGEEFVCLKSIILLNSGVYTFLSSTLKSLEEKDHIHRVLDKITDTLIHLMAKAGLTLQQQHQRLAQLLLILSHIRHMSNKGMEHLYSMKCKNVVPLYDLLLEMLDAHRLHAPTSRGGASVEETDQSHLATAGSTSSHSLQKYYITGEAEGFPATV

For the compound `CC1=C(c2cccc(O)c2)C(c2ccc(OCCN3CCO[C@@H](C)C3)cc2)Oc2ccc(O)cc21` (stereo partly drawn) [Example 20, 3-(3-Hydroxyphenyl)-4-methyl-2-(4-(2-((S)-2-methylmorpholino)ethoxy)phenyl)-2H-chromen-6-ol], in test [1], the negative-log IC50 (pIC50) was more than 9.00 and the “MCF7 Viability Assay Max Response” value was “+ (+ = a single % value <50%)”. In addition, the Emax in test [2] was less than 60%.

For `CC1=C(c2cccc(O)c2)C(c2ccc(OCCN3CCOCC3)cc2)Oc2ccc(O)cc21` (stereo not drawn) [Example 21, 3-(3-Hydroxyphenyl)-4-methyl-2-(4-(2-morpholinoethoxy)phenyl)-2H-chromen-6-ol], in test [1], the negative-log IC50 (pIC50) was more than 9.00 and the “MCF7 Viability Assay Max Response” value is “+ (+ = a single % value <50%)”. For the same compound, in test [2], the Emax is 60 to 85%.

For the compound `CC1=C(c2cccc(O)c2)C(c2ccc(OCCN3CCO[C@H](C)C3)cc2)Oc2ccc(O)cc21` (stereo partly drawn) [Example 22, 3-(3-Hydroxyphenyl)-4-methyl-2-(4-(2-((R)-2-methylmorpholino)ethoxy)phenyl)-2H-chromen-6-ol], in test [1], the negative-log IC50 (pIC50) is less than 9.00 and the “MCF7 Viability Assay Max Response” value is “+ (+ = a single % value <50%)”. For the same compound, the Emax in test [2] is less than 60%.

For the compound `CC1=C(c2cccc(O)c2)C(c2ccc(OCCN3CCOC[C@@H]3C)cc2)Oc2ccc(O)cc21` (stereo partly drawn) [Example 23, 3-(3-Hydroxyphenyl)-4-methyl-2-(4-(2-((S)-3-methylmorpholino)ethoxy)phenyl)-2H-chromen-6-ol], in test [1], the negative logarithm of the IC50 (pIC50) was less than 9.00 and the “MCF7 Viability Assay Max Response” value is recorded as “+ (+ = a single % value <50%)”. For the same compound, the Emax in test [2] is less than 60%.

As for `CC1=C(c2cccc(O)c2)C(c2ccc(OCCN3CCOC[C@H]3C)cc2)Oc2ccc(O)cc21` (stereo partly drawn) [Example 24, 3-(3-Hydroxyphenyl)-4-methyl-2-(4-(2-((R)-3-methylmorpholino)ethoxy)phenyl)-2H-chromen-6-ol], in test [1], the pIC50 was more than 9.00 and the “MCF7 Viability Assay Max Response” value was “+ (+ = a single % value <50%)”. Further, the Emax in test [2] is less than 60%.

For the compound `CO[C@@H]1CCN([C@@H](C)COc2ccc(C3Oc4ccc(O)cc4C(C)=C3c3cccc(O)c3)cc2)C1` (stereo partly drawn) [Example 25, 3-(3-Hydroxyphenyl)-2-(4-((S)-2-((R)-3-methoxypyrrolidin-1-yl)propoxy)phenyl)-4-methyl-2H-chromen-6-ol], in test [1], the pIC50 is more than 9.00 and the “MCF7 Viability Assay Max Response” value was “++ (++ = a single % value ≧50%)”. For the same compound, in test [2], the Emax lay within 60 to 85%.

As for `CC1=C(c2cccc(O)c2)C(c2ccc(OC[C@H](C)N3CC[C@@H](O)C3)cc2)Oc2ccc(O)cc21` (stereo partly drawn) [Example 26, (3R)-1-((2S)-1-(4-(6-Hydroxy-3-(3-hydroxyphenyl)-4-methyl-2H-chromen-2-yl)phenoxy)propan-2-yl)pyrrolidin-3-ol], in test [1], the negative-log IC50 (pIC50) is more than 9.00 and the “MCF7 Viability Assay Max Response” value is on record as “+ (+ = a single % value <50%)”. The Emax in test [2] was less than 60%.

As for `CC1=C(c2cccc(O)c2)C(c2ccc(OC[C@H](C)N3CCOC[C@H]3C)cc2)Oc2ccc(O)cc21` (stereo partly drawn) [Example 27, 3-(3-Hydroxyphenyl)-4-methyl-2-(4-((S)-2-((R)-3-methylmorpholino)propoxy)phenyl)-2H-chromen-6-ol], in test [1], the pIC50 was more than 9.00 and the “MCF7 Viability Assay Max Response” value is “++ (++ = a single % value ≧50%)”. For the same compound, in test [2], the Emax was less than 60%.

As to `CC1=C(c2cccc(O)c2)C(c2ccc(OC[C@H](C)N3CCN(C)C[C@H]3C)cc2)Oc2ccc(O)cc21` (stereo partly drawn) [Example 28, 2-(4-((S)-2-((R)-2,4-Dimethylpiperazin-1-yl)propoxy)phenyl)-3-(3-hydroxyphenyl)-4-methyl-2H-chromen-6-ol], in test [1], the pIC50 is more than 9.00 and the “MCF7 Viability Assay Max Response” value was “+ (+ = a single % value <50%)”. Besides, in test [2], the Emax is less than 60%.

In the case of `CC1=C(c2cccc(O)c2)C(c2ccc(OC[C@H](C)N3CCOCC3)cc2)Oc2ccc(O)cc21` (stereo partly drawn) [Example 29, 3-(3-Hydroxyphenyl)-4-methyl-2-(4-((S)-2-morpholinopropoxy)phenyl)-2H-chromen-6-ol], in test [1], the pIC50 was more than 9.00 and the “MCF7 Viability Assay Max Response” value was “+ (+ = a single % value <50%)”. Further, the Emax in test [2] is 60 to 85%.

In the case of `COc1ccc2c(c1)C(C)=C(c1ccc(O)cc1)C(c1ccc(OC[C@H](C)N3CC[C@@H](C)C3)cc1)O2` (stereo partly drawn) [Example 30, 4-(6-Methoxy-4-methyl-2-(4-((S)-2-((R)-3-methylpyrrolidin-1-yl)propoxy)phenyl)-2H-chromen-3-yl)phenol], in test [1], the negative-log IC50 (pIC50) was less than 9.00 and the “MCF7 Viability Assay Max Response” value is given as “++ (++ = a single % value ≧50%)”. Also, in test [2], the Emax is 60 to 85%.

In the case of `COc1cccc(C2=C(C)c3cc(O)ccc3OC2c2ccc(OC[C@H](C)N3CC[C@@H](C)C3)cc2)c1` (stereo partly drawn) [Example 31, 3-(3-Methoxyphenyl)-4-methyl-2-(4-((S)-2-((R)-3-methylpyrrolidin-1-yl)propoxy)phenyl)-2H-chromen-6-ol], in test [1], the pIC50 is less than 9.00 and the “MCF7 Viability Assay Max Response” value is given as “++ (++ = a single % value ≧50%)”. Further, the Emax in test [2] lay within 60 to 85%.
